Assay results as given in the supplement of paper PMC4862054.

Test system: SK-BR-3
Test: normalised response (% of control), CellTiter-Glo; higher = more viable cells (100 = DMSO, 0 = benzethonium chloride kill control)
Conditions: incubation time: 72 h
Procedure, shortened: (§1)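 Each entry is the normalised signal at a single concentration within a series. The series comprised 5 concentrations in 10-fold steps over a compound-specific 10,000-fold range, placed in 384-well plates into which breast cancer cell lines were seeded as 20 µl suspension and incubated 72 h. CellTox Green (485/520 nm) fluorescence and then CellTiter-Glo luminescence were read, with signals normalised per plate to 0.1 % DMSO (100) and a positive kill control (0).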

SMILES | normalised response [%]
CNC(=O)c1cc(Oc2ccc(NC(=O)Nc3ccc(Cl)c(C(F)(F)F)c3)c(F)c2)ccn1 [Regorafenib] (1000 nM) | 102
c1ccc2c(CCNc3ccc(Nc4ccncc4)cc3)c[nH]c2c1 [Serdemetan] (1000 nM) | 79.6
CN(C)CCOc1ccc(/C(=C(/CCCl)c2ccccc2)c2ccccc2)cc1 [Toremifene] (1000 nM) | 106
CC(C)C[C@@H](C(=O)N[C@H](C(=O)OC1CCCC1)c1ccccc1)[C@H](O)C(=O)NO [Tosedostat] (1000 nM) | 76.2
COCC[n+]1c2c(n(Cc3cnccn3)c1C)C(=O)c1ccccc1C2=O [YM155] (1000 nM) | -0.16

Test system: DU-4475
Test: as above
Conditions: incubation time: 72 h
Procedure, shortened: as §1

SMILES | normalised response [%]
N#Cc1ccc(COC[C@H]2O[C@@H](n3c(NCc4ccc(Cl)c(Cl)c4)nc4c(N)ncnc43)[C@H](O)[C@@H]2O)cc1 (1000 nM) | 86
COc1cc(OC2CCN(C)CC2)ccc1Nc1ncc2c(n1)n(C1CCCC1)c(=O)n2C [AZ 3146] (1000 nM) | 94.6
CN(C)c1nc(N(C)C)nc(N(C)C)n1 [Altretamine] (1000 nM) | 98.9
O=C(/C=C/c1cccc(S(=O)(=O)Nc2ccccc2)c1)NO [Belinostat] (1000 nM) | 23.1
O=P1(N(CCCl)CCCl)NCCCO1 (stereo not given) [Cyclophosphamide] (4000 nM) | 104
C=C1C[C@@H]2[C@H](CC[C@]3(C)C(=O)CC[C@@H]23)[C@@]2(C)C=CC(=O)C=C12 [Exemestane] (1000 nM) | 105
COc1cc2ncnc(Nc3ccc(F)c(Cl)c3)c2cc1OCCCN1CCOCC1 [Gefitinib] (1000 nM) | 99.7
O=C(Nc1ccncc1)C(=O)c1cn(Cc2ccc(Cl)cc2)c2ccccc12 [Indibulin] (1000 nM) | 91.8
NC(=O)c1ccc(I)c([N+](=O)[O-])c1 [Iniparib] (1000 nM) | 92.3
CCc1c2c(nc3ccc(OC(=O)N4CCC(N5CCCCC5)CC4)cc13)-c1cc3c(c(=O)n1C2)COC(=O)[C@]3(O)CC [Irinotecan] (1000 nM) | 82.1
Oc1ccc2c(c1)CC[C@H](c1ccccc1)[C@@H]2c1ccc(OCCN2CCCC2)cc1 [Lasofoxifene] (100 nM) | 95.7
Cc1ccc(NC(=O)c2ccc(CN3CCN(C)CC3)cc2)cc1Nc1nc(-c2cccnc2)cs1 [Masitinib] (1000 nM) | 103
O=C(Nc1cccnc1)N1CCC(Cc2cccc(Oc3ccc(C(F)(F)F)cn3)c2)CC1 [PF-3845] (1000 nM) | 98.3
Cc1[nH]c2ccccc2c1CCNCc1ccc(/C=C/C(=O)NO)cc1 [Panobinostat] (100 nM) | 4.91
COCC1(CO)C(=O)C2CCN1CC2 (stereo not given) [Prima-1 Met] (1000 nM) | 105
CNC(=O)c1cc(Oc2ccc(NC(=O)Nc3ccc(Cl)c(C(F)(F)F)c3)c(F)c2)ccn1 [Regorafenib] (1000 nM) | 97.3
c1ccc2c(CCNc3ccc(Nc4ccncc4)cc3)c[nH]c2c1 [Serdemetan] (1000 nM) | 90.3
CN(C)CCOc1ccc(/C(=C(/CCCl)c2ccccc2)c2ccccc2)cc1 [Toremifene] (1000 nM) | 98.3
CC(C)C[C@@H](C(=O)N[C@H](C(=O)OC1CCCC1)c1ccccc1)[C@H](O)C(=O)NO [Tosedostat] (1000 nM) | 88.4
COCC[n+]1c2c(n(Cc3cnccn3)c1C)C(=O)c1ccccc1C2=O [YM155] (1000 nM) | 1.45

Test system: HCC1599
Test: as above
Conditions: incubation time: 72 h
Procedure, shortened: as §1

SMILES | normalised response [%]
N#Cc1ccc(COC[C@H]2O[C@@H](n3c(NCc4ccc(Cl)c(Cl)c4)nc4c(N)ncnc43)[C@H](O)[C@@H]2O)cc1 (1000 nM) | 116
COc1cc(OC2CCN(C)CC2)ccc1Nc1ncc2c(n1)n(C1CCCC1)c(=O)n2C [AZ 3146] (1000 nM) | 112
CN(C)c1nc(N(C)C)nc(N(C)C)n1 [Altretamine] (1000 nM) | 118
O=C(/C=C/c1cccc(S(=O)(=O)Nc2ccccc2)c1)NO [Belinostat] (1000 nM) | 44.5
O=P1(N(CCCl)CCCl)NCCCO1 (stereo not given) [Cyclophosphamide] (4000 nM) | 109
C=C1C[C@@H]2[C@H](CC[C@]3(C)C(=O)CC[C@@H]23)[C@@]2(C)C=CC(=O)C=C12 [Exemestane] (1000 nM) | 115
COc1cc2ncnc(Nc3ccc(F)c(Cl)c3)c2cc1OCCCN1CCOCC1 [Gefitinib] (1000 nM) | 104
O=C(Nc1ccncc1)C(=O)c1cn(Cc2ccc(Cl)cc2)c2ccccc12 [Indibulin] (1000 nM) | 63.1
NC(=O)c1ccc(I)c([N+](=O)[O-])c1 [Iniparib] (1000 nM) | 105
CCc1c2c(nc3ccc(OC(=O)N4CCC(N5CCCCC5)CC4)cc13)-c1cc3c(c(=O)n1C2)COC(=O)[C@]3(O)CC [Irinotecan] (1000 nM) | 109
Oc1ccc2c(c1)CC[C@H](c1ccccc1)[C@@H]2c1ccc(OCCN2CCCC2)cc1 [Lasofoxifene] (100 nM) | 107
Cc1ccc(NC(=O)c2ccc(CN3CCN(C)CC3)cc2)cc1Nc1nc(-c2cccnc2)cs1 [Masitinib] (1000 nM) | 106
O=C(Nc1cccnc1)N1CCC(Cc2cccc(Oc3ccc(C(F)(F)F)cn3)c2)CC1 [PF-3845] (1000 nM) | 104
Cc1[nH]c2ccccc2c1CCNCc1ccc(/C=C/C(=O)NO)cc1 [Panobinostat] (100 nM) | 24.2
COCC1(CO)C(=O)C2CCN1CC2 (stereo not given) [Prima-1 Met] (1000 nM) | 106
CNC(=O)c1cc(Oc2ccc(NC(=O)Nc3ccc(Cl)c(C(F)(F)F)c3)c(F)c2)ccn1 [Regorafenib] (1000 nM) | 102
c1ccc2c(CCNc3ccc(Nc4ccncc4)cc3)c[nH]c2c1 [Serdemetan] (1000 nM) | 114
CN(C)CCOc1ccc(/C(=C(/CCCl)c2ccccc2)c2ccccc2)cc1 [Toremifene] (1000 nM) | 102
CC(C)C[C@@H](C(=O)N[C@H](C(=O)OC1CCCC1)c1ccccc1)[C@H](O)C(=O)NO [Tosedostat] (1000 nM) | 96.6
COCC[n+]1c2c(n(Cc3cnccn3)c1C)C(=O)c1ccccc1C2=O [YM155] (1000 nM) | -0.01

Test system: HCC1143
Test: as above
Conditions: incubation time: 72 h
Procedure, shortened: as §1

SMILES | normalised response [%]
N#Cc1ccc(COC[C@H]2O[C@@H](n3c(NCc4ccc(Cl)c(Cl)c4)nc4c(N)ncnc43)[C@H](O)[C@@H]2O)cc1 (1000 nM) | 97.2
COc1cc(OC2CCN(C)CC2)ccc1Nc1ncc2c(n1)n(C1CCCC1)c(=O)n2C [AZ 3146] (1000 nM) | 99.2
CN(C)c1nc(N(C)C)nc(N(C)C)n1 [Altretamine] (1000 nM) | 103
O=C(/C=C/c1cccc(S(=O)(=O)Nc2ccccc2)c1)NO [Belinostat] (1000 nM) | 47.3
O=P1(N(CCCl)CCCl)NCCCO1 (stereo not given) [Cyclophosphamide] (4000 nM) | 104
C=C1C[C@@H]2[C@H](CC[C@]3(C)C(=O)CC[C@@H]23)[C@@]2(C)C=CC(=O)C=C12 [Exemestane] (1000 nM) | 107
COc1cc2ncnc(Nc3ccc(F)c(Cl)c3)c2cc1OCCCN1CCOCC1 [Gefitinib] (1000 nM) | 96.2
O=C(Nc1ccncc1)C(=O)c1cn(Cc2ccc(Cl)cc2)c2ccccc12 [Indibulin] (1000 nM) | 67.2
NC(=O)c1ccc(I)c([N+](=O)[O-])c1 [Iniparib] (1000 nM) | 87.7
CCc1c2c(nc3ccc(OC(=O)N4CCC(N5CCCCC5)CC4)cc13)-c1cc3c(c(=O)n1C2)COC(=O)[C@]3(O)CC [Irinotecan] (1000 nM) | 88.1
Oc1ccc2c(c1)CC[C@H](c1ccccc1)[C@@H]2c1ccc(OCCN2CCCC2)cc1 [Lasofoxifene] (100 nM) | 106
Cc1ccc(NC(=O)c2ccc(CN3CCN(C)CC3)cc2)cc1Nc1nc(-c2cccnc2)cs1 [Masitinib] (1000 nM) | 99
O=C(Nc1cccnc1)N1CCC(Cc2cccc(Oc3ccc(C(F)(F)F)cn3)c2)CC1 [PF-3845] (1000 nM) | 106
Cc1[nH]c2ccccc2c1CCNCc1ccc(/C=C/C(=O)NO)cc1 [Panobinostat] (100 nM) | 26.3
COCC1(CO)C(=O)C2CCN1CC2 (stereo not given) [Prima-1 Met] (1000 nM) | 105
CNC(=O)c1cc(Oc2ccc(NC(=O)Nc3ccc(Cl)c(C(F)(F)F)c3)c(F)c2)ccn1 [Regorafenib] (1000 nM) | 93.5
c1ccc2c(CCNc3ccc(Nc4ccncc4)cc3)c[nH]c2c1 [Serdemetan] (1000 nM) | 83.8
CN(C)CCOc1ccc(/C(=C(/CCCl)c2ccccc2)c2ccccc2)cc1 [Toremifene] (1000 nM) | 96.3
CC(C)C[C@@H](C(=O)N[C@H](C(=O)OC1CCCC1)c1ccccc1)[C@H](O)C(=O)NO [Tosedostat] (1000 nM) | 69
COCC[n+]1c2c(n(Cc3cnccn3)c1C)C(=O)c1ccccc1C2=O [YM155] (1000 nM) | 0.6

Test system: CAL-51
Test: as above
Conditions: incubation time: 72 h
Procedure, shortened: as §1

SMILES | normalised response [%]
N#Cc1ccc(COC[C@H]2O[C@@H](n3c(NCc4ccc(Cl)c(Cl)c4)nc4c(N)ncnc43)[C@H](O)[C@@H]2O)cc1 (1000 nM) | 110
COc1cc(OC2CCN(C)CC2)ccc1Nc1ncc2c(n1)n(C1CCCC1)c(=O)n2C [AZ 3146] (1000 nM) | 74.5
CN(C)c1nc(N(C)C)nc(N(C)C)n1 [Altretamine] (1000 nM) | 108
O=C(/C=C/c1cccc(S(=O)(=O)Nc2ccccc2)c1)NO [Belinostat] (1000 nM) | 31.7
O=P1(N(CCCl)CCCl)NCCCO1 (stereo not given) [Cyclophosphamide] (4000 nM) | 99.4
C=C1C[C@@H]2[C@H](CC[C@]3(C)C(=O)CC[C@@H]23)[C@@]2(C)C=CC(=O)C=C12 [Exemestane] (1000 nM) | 80.5
COc1cc2ncnc(Nc3ccc(F)c(Cl)c3)c2cc1OCCCN1CCOCC1 [Gefitinib] (1000 nM) | 103
O=C(Nc1ccncc1)C(=O)c1cn(Cc2ccc(Cl)cc2)c2ccccc12 [Indibulin] (1000 nM) | 25.5
NC(=O)c1ccc(I)c([N+](=O)[O-])c1 [Iniparib] (1000 nM) | 126
CCc1c2c(nc3ccc(OC(=O)N4CCC(N5CCCCC5)CC4)cc13)-c1cc3c(c(=O)n1C2)COC(=O)[C@]3(O)CC [Irinotecan] (1000 nM) | 96.6
